Tests used:
Format in all cases: cell-based
Mu-type opioid receptor = Mu-type opioid receptor (Homo sapiens, UniProt P35372); test: Displacement of [3H]diprenorphine from cloned human mu opioid receptor expressed in CHO cells
[1] = biological target: Delta-type opioid receptor (Homo sapiens, UniProt P41143); test: Displacement of [3H]bremazocine from cloned human delta opioid receptor expressed in CHO cells
[2] = biological target: Kappa-type opioid receptor (Homo sapiens, UniProt P41145); test: Displacement of [3H]diprenorphine from cloned human kappa opioid receptor expressed in CHO cells
Sequence of Kappa-type opioid receptor (P41145 whole entry): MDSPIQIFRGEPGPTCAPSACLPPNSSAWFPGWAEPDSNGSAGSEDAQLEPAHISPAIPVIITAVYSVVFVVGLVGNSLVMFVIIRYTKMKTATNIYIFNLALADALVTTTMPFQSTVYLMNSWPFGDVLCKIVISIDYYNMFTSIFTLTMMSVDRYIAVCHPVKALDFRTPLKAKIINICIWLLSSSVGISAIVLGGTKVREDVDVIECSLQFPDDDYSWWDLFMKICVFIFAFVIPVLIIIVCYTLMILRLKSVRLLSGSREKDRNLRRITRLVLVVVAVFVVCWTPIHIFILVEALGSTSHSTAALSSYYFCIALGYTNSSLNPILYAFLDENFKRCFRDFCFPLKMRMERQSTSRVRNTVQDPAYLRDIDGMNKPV

Sequence of Mu-type opioid receptor (P35372 whole entry): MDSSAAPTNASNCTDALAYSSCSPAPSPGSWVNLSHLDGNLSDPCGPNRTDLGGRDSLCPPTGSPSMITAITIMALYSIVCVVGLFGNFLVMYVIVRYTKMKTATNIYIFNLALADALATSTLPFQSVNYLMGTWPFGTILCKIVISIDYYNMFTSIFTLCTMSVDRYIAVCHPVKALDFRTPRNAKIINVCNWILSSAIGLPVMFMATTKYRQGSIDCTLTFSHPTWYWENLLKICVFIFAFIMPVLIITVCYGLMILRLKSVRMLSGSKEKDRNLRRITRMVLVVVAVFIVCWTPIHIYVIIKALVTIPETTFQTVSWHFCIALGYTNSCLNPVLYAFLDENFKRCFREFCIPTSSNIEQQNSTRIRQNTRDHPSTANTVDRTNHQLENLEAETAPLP
Sequence of Delta-type opioid receptor (P41143 whole entry): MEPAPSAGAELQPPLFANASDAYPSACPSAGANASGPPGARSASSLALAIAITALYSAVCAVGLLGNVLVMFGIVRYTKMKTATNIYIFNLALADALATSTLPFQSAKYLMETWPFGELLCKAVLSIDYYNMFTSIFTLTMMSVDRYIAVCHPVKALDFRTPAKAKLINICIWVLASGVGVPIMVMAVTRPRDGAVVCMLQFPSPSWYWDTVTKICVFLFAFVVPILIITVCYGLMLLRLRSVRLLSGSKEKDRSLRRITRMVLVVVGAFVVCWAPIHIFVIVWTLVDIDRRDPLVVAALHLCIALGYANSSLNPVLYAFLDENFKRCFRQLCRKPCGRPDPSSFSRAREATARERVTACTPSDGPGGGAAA

Row | SMILES | Ki (Mu-type opioid receptor) [nM] | Ki [1] [nM] | Ki [2] [nM]
1 | NC(=O)c1ccc(Oc2ccc3c(c2)CCN(CCCc2ccccc2)C3)nc1 | 185 | 2140 | 556
2 | NC(=O)c1ccc(Oc2ccc3c(c2)CN(CCc2ccccc2)CC3)nc1 | > 3330 | > 5000 | 3610
3 | NC(=O)c1ccc(Oc2ccc3c(c2)CCCN(CCc2ccccc2)C3)nc1 | 10.1 | 169 | 361
4 | NC(=O)c1ccc(Oc2ccc3c(c2)CCN(CCc2ccccc2)CC3)nc1 | 91.5 | 1380 | > 4900
5 | NC(=O)c1ccc(Oc2ccc(CCN3CCc4ccccc4C3)cc2)nc1 | 5.05 | 144 | 188
6 | CCCCCN1CCCc2cc(Oc3ccc(C(N)=O)cn3)ccc2C1 | 11.9 | 187 | 106
7 | CC(C)CCCCN1CCCc2cc(Oc3ccc(C(N)=O)cn3)ccc2C1 | 11.9 | 240 | 319
8 | NC(=O)c1ccc(Oc2ccc3c(c2)CCN(CCc2ccccc2)C3)nc1 | 16 | 180 | 1220
9 | NC(=O)c1ccc(Oc2ccc3c(c2)CCCN(CCCC(F)(F)F)C3)nc1 | 24.4 | 388 | –

Now from value to compound:

Row | Ki (Mu-type opioid receptor) [nM] | Ki [1] [nM] | Ki [2] [nM] | SMILES
10 | 659 | 2270 | > 5000 | NC(=O)c1ccc(Oc2ccc3c(c2)CN(CCc2ccccc2)C3)nc1
11 | 179 | 2350 | 2150 | NC(=O)c1ccc(Oc2ccc3c(c2)CCN(Cc2ccccc2)C3)nc1
12 | 406 | 2710 | 2870 | NC(=O)c1ccc(Oc2ccc3c(c2)CCN(Cc2ccccc2)CC3)nc1
13 | 20.8 | 504 | – | CCCCN1CCCc2cc(Oc3ccc(C(N)=O)cn3)ccc2C1
14 | 12 | 163 | 116 | CCCCCCN1CCCc2cc(Oc3ccc(C(N)=O)cn3)ccc2C1
15 | 11.1 | 232 | 78.1 | CC(C)CCN1CCCc2cc(Oc3ccc(C(N)=O)cn3)ccc2C1
16 | 42 | 3890 | 61.6 | CCC(CC)CN1CCCc2cc(Oc3ccc(C(N)=O)cn3)ccc2C1
17 | 41.7 | 466 | 704 | NC(=O)c1ccc(Oc2ccc3c(c2)CCCN(CCCC2CCCCC2)C3)nc1
18 | 1010 | > 5000 | > 5000 | NC(=O)c1ccc(Oc2ccc3c(c2)CN(Cc2ccccc2)C3)nc1
19 | 129 | 1910 | 360 | NC(=O)c1ccc(Oc2ccc3c(c2)CCCN(CCN2CCOCC2)C3)nc1
20 | 216 | 2580 | 3250 | NC(=O)c1ccc(Oc2ccc3c(c2)CCCN(CCCN2CCOCC2)C3)nc1
21 | 7.55 | 108 | 106 | CC(C)CCCN1CCCc2cc(Oc3ccc(C(N)=O)cn3)ccc2C1
22 | 18.3 | 409 | 71.6 | CC(C)(C)CCN1CCCc2cc(Oc3ccc(C(N)=O)cn3)ccc2C1
23 | 232 | 2450 | 2430 | NC(=O)c1ccc(Oc2ccc3c(c2)CN(Cc2ccccc2)CC3)nc1

From ChEMBL document CHEMBL1138307, “Structure activity relationship studies of carboxamido-biaryl ethers as opioid receptor antagonists (OpRAs). Part 2” (Bioorg Med Chem Lett, 2007)
